The text below walks through data of patent publication EP4755403A1, “ANTI-PSMA ANTIBODY-DRUG CONJUGATE AND PHARMACEUTICAL USE THEREOF” (Jiangsu Hengrui Pharmaceuticals Co., Ltd., priority 2023, dated 2025).

pIC50: −log10 of the molar value.

Common to all, as to test: Cell killing activity of ADC molecules (CellTiter-Glo)
What all share (assay type): cell-based, human
Common to all, as to conditions: 5 days
Background: In ATP-based viability assays light output follows the ATP content of the culture.

One assay has as its system 22RV1 cells. Here is the method: (§1) LNCaP (ATCC, CRL-1740), 22RV1 (ATCC, CRL-2505), and PC-3 (ATCC, CRL-1435) cells were digested with trypsin, neutralized with a fresh medium, centrifuged at 1000 rpm, and then resuspended in a medium. After the cells were counted, the density of the cell suspensions was adjusted to […], and the cells were plated onto a 96-well plate. The adjusted cell suspension (135 µL) was added to each well with […]. Only the middle 60 wells were used for plating, and six wells in the twelfth column were taken as pure medium controls without cells. An equal volume of PBS was added to the other wells. The cells were incubated at 37 °C with 5% CO2 for 16 h.
(§2) Then 20 µL of the dilution was added to the cell plate described above, and the plate was incubated in an incubator (37 °C, 5% CO2) for 5 days. […] Subsequently, 9-point serial dilutions at a 1:3 ratio were performed with PBS. Then 1 µL of the dilution was added to 20 µL of RPMI-1640, and the mixture was transferred to a 96-well cell culture plate. The plate was incubated in an incubator (37 °C, 5% CO2) for 5 days. In the 96-well cell culture plate, 80 µL of the CellTiter-Glo reagent was added to each well, and the plate was left to stand in the dark at room temperature for 10-15 min. The chemiluminescence signal values were read on Victor3, and the data were processed using GraphPad software.
(§3) On the fifth day, the culture plate was taken out and allowed to return to room temperature. The CellTiter-Glo assay solution (75 µL) was added to each well, and the plate was left to stand in the dark at room temperature for 10 min. A Backseal membrane was attached to the bottom of the cell culture plate. The plate was placed on a microplate reader Victor 3, and luminescence signal values were read. Curve fitting was performed according to the log values of concentrations of the test compounds to the corresponding signal values using Graphpad Prism software, and IC50 values were calculated. The maximum value of killing was defined as the maximum killing rate (Imax) of the compound. The killing rate was calculated as follows: [formula]

The subject of a further assay is LNCaP cells. Here is the method: as §1, §2, §3
For a further assay, the system named is PC-3 cells. Here is the method: as §1, §2, §3
The mark [1] stands for this setting: Homo sapiens, 120 h, read-out: IC50 (killing effect).

As usually defined, the pIC50 is −log10 of the IC50, conventionally taken in molar units.

Regarding `CC[C@@]1(O)C(=O)OCc2c1cc1n(c2=O)Cc2c-1nc1cc(F)c(C)c3c1c2[C@@H](NC(=O)[C@H](O)C1CC1)CC3` [Compound 2-B], the results for the “Imax (maximum killing rate)” value in the assay with 22RV1 cells, in the assay on LNCaP cells and in the assay with PC-3 cells were 98.07%, 97.13% and 92.78%, respectively. In addition, the pIC50 in the assay on 22RV1 cells (setting [1]) was 9.27; in the assay on LNCaP cells (setting [1]), 9.27; in the assay with PC-3 cells (setting [1]), 8.81.
